In ChEMBL document CHEMBL3745677, “Discovery of 6-(4-{[5-Cyclopropyl-3-(2,6-dichlorophenyl)isoxazol-4-yl]methoxy}piperidin-1-yl)-1-methyl-1H-indole-3-carboxylic Acid: A Novel FXR Agonist for the Treatment of Dyslipidemia” (J Med Chem, 2015):

Experiments:
Assay type in all cases: functional, Zucker
Rattus norvegicus [1] = experiment: Antidyslipidemic activity in ZDF rat assessed as LDL/IgHDL level at 0.3 mg/kg for 9 days by FPLC analysis (reference value: 17.8 mg/dL)
Rattus norvegicus [2] = experiment: Antidyslipidemic activity in ZDF rat assessed as HDL level at 0.3 mg/kg for 9 days by FPLC analysis (reference value: 48.3 mg/dL)
Rattus norvegicus [3] = experiment: Antidyslipidemic activity in ZDF rat assessed as VLDL level at 0.3 mg/kg for 9 days by FPLC analysis (reference value: 35 mg/dL)

Q: What does the source list for CN(CCOc1ccc(CC2SC(=O)NC2=O)cc1)c1ccccn1 (stereo not drawn) [ROSIGLITAZONE]?
A: Activity (Rattus norvegicus [1]): 19 mg/dL; Activity (Rattus norvegicus [2]): 61.3 mg/dL; Activity (Rattus norvegicus [3]): 26.3 mg/dL
